The source of these data is patent US20250177530A1, “MOLECULES THAT BIND TO ENPP1 POLYPEPTIDES” (UNIVERSITY OF PITTSBURGH - OF THE COMMONWEALTH SYSTEM OF …, priority 2022, published 2025).

Non-standard residues stand in square brackets, D forms with d. Residues, ends and D or L forms follow the SMILES beside them. *: point of attachment. Dolaproine = CO[C@@H]([C@@H]1CCCN1)[C@@H](C)C(=O)O; Dil = CC[C@H](C)[C@H](NC)[C@@H](CC(=O)O)OC; X1 = C[C@@H](N*)[C@@H](O)c1ccccc1; NMeV = CN[C@H](C(=O)O)C(C)C

Holding throughout (experiment): ADC cytotoxicity (Cell Titer-Glo cell viability)
Assay type in all cases: cell-based
For orientation: In ATP-based viability assays light output follows the ATP content of the culture.

One test deals with 293T-ENPP1 cells. The protocol: (§1) The cell-killing activity of anti-ENPP1 CAR^+ T cells and BiTEs were measured by LDH-Glo cytotoxicity assay kit (Promega, Madison, WI, USA). For the cell-killing activity of anti-ENPP1 CAR^+ T cells, control T cells or CAR^+ T cells as effector cells were incubated with 293T, 293T-ENPP1, and HepG2 target cells (5×10^3 cells/well in 96-well plate) separately at indicated E:T ratio for 24 hours at 37° C. For the cell-killing activity of BiTEs, target cells (1×10^4 cells/well) were mixed with serially diluted BiTEs in 50 μL of growth medium, and […] activated T cells were added at the ET ratio 10:1 and cultured for 24 hours at 37° C. in 5% CO2 humidified atmosphere. Controls for the calculation of percentage cytotoxicity were performed according to the manufacturer's instructions. The calculation of relative % cytotoxicity as follows: relative % cytotoxicity=100×(Experimental LDH release-medium background)/(target and effector maximum LDH release control-medium background). For the cell-killing activity of ADC, 293T, 293T-ENPP1, and HepG2 cells were seeded at 2000 cells/well in 96-well white plate and incubated overnight at 37° C. in 5% CO2. Serial diluted anti-ENPP1 ADC was added and cultured for 4 days at 37° C. in 5% CO2. Images were captured under a 4×objective microscope (Olympus microscope, Westborough, MA, USA). Controls with cells only were used for calculation of percent relative cell viability. At the end of the time point, the Cell Titer-Glo Luminescent cell viability assay kit (Promega) was used to measure the cell viability. The calculation of % Relative cell viability was as follows: % Relative cell viability=100×(Experimental luminescence values-medium Background)/(Control luminescence values-medium Background). For ADCC, the ADCC reporter bioassay complete kit (Promega) was used, the experiment was performed following the manufacturer's instructions. The 293T-ENPP1 cell line was used as target cell.

A further test concerns 293T cells. The protocol: as §1
The test system of the next test is HepG2 cells. Particulars: 200 nM. Here is the method:
as §1

For the compound `CC[C@H](C)[C@@H]([C@@H](CC(=O)N1CCC[C@H]1[C@H](OC)[C@@H](C)C(=O)N[C@H](C)[C@@H](O)c1ccccc1)OC)N(C)C(=O)[C@@H](NC(=O)[C@@H](NC)C(C)C)C(C)C` [MMAE, monomethyl auristatin E, reference compound] (H-[NMeV]V[Dil][Dolaproine]-X1), the “killing at 200 nM” value in the test with 293T-ENPP1 cells and in the test on 293T cells (200 nM) was “non-specific killing” in each case. In the test with 293T cells (concentrations below 200 nM), the “killing at lower concentrations” value is “no non-specific killing”. For the same compound, the “killing effects of free MMAE and ADC compared” value in the test on HepG2 cells is recorded as “comparable”.
